# Data from patent publication US11072605B2, “Crystalline brexpiprazole” (Hexal Aktiengesellschaft, priority 2017, dated 2021).
# Assay: Particle size distribution by laser diffraction (Malvern Mastersizer 3000)
# Format: physicochemical
# Conditions: aqueous suspension, after ultrasonification
# Experimental: For the purpose of this invention, particle size distribution (PSD) is determined as the percent volume at each particle size and measured by a laser diffraction method in the context of a circulating aqueous suspension.
# A Malvern Mastersizer 3000 laser diffraction analyzer equipped with a Hydro EV measurement cell was used. About 50 mg of sample were filled into a 15 ml glass test tube. The sample was wetted with two drops of Tween 80 and vortexed. Then the thoroughly wetted sample was dispersed in about 7 mL of UHQ-water by vortexing until the particles were dispersed. The suspension was treated for 7 minutes in an ultrasonification bath at RT (Elma S50H). The well dispersed suspension was then measured in water by adding a sample from the center of the test tube containing the well dispersed suspension to a water-filled dispersion unit prefilled with 70 mL of water. The sample in the 70 mL dispersion unit was kept under stirring at 2000 rpm. More sample from the test tube was added, until a targeted obscuration range of 10-25 percent was achieved. The Malvern Mastersizer was operated using the following parameters:
# Particle size distribution was measured with a Malvern Mastersizer 3000 laser diffraction analyzer equipped with a Hydro EV measurement cell. About 50 mg of sample were given into a test tube. The sample was wetted with two drops of Tween 80 and dispersed in about 7 ml of water on a Vortexer. The suspension was treated for 7 minutes in a ultrasonification bath (Elma S50H). The well dispersed suspension was afterwards measured in water at a targeted obscuration range of 10-25 percent while circulating the aqueous suspension and stirring the suspension reservoir at 2000 rpm after a waiting period of three minutes. A fraunhofer optical model was utilized to deconvolute the sample scattering patterns to yield the resultant particle size distributions. Analysis model: General purpose/normal sensitivity. Measuring/background time: about 10 sec
SMILES,"d(4,3) volume mean diameter",d(10) (volume distribution),d(90) (volume distribution),d(50) (volume distribution) [μm]
O=c1ccc2ccc(OCCCCN3CCN(c4cccc5sccc45)CC3)cc2[nH]1 [(i)],D(4.3): 19 μm,D(10): 1.5 μm,D(90): 42 μm,–
O=c1ccc2ccc(OCCCCN3CCN(c4cccc5sccc45)CC3)cc2[nH]1 [(ii)],D(4.3): 30 μm,D(10): 1.3 μm,D(90); 79 μm,–
"O=c1ccc2ccc(OCCCCN3CCN(c4cccc5sccc45)CC3)cc2[nH]1 [Compound I, 7-[4-[4-(1-Benzothiophen-4-yl)piperazin-1-yl]butoxy]quinolin-2(1H)-one, reference compound]",–,0.8 μm,10.8 μm,3
